Measurements from BigSolDB 2.1.

In the case of `CC(=O)Oc1cc(C)c(OC(C)=O)c2ccccc12`, the solubility (mole fraction) (in cyclohexanol, 283.1 K) is reported as 0.00261, the solubility (mole fraction) (in cyclohexanol, 288.1 K) is reported as 0.00403 and the solubility (mole fraction) (in cyclohexanol, 293.1 K) is reported as 0.00595. The solubility (mole fraction) (in cyclohexanol, 298.1 K) was 0.0082, the solubility (mole fraction) (in cyclohexanol, 303.1 K) was 0.0105 and the solubility (mole fraction) (in cyclohexanol, 308.1 K) was 0.0138. It also gave a solubility (mole fraction) (in cyclohexanol, 313.1 K) of 0.0182, a solubility (mole fraction) (in cyclohexanol, 318.1 K) of 0.0245 and a solubility (mole fraction) (in cyclohexanol, 323.1 K) of 0.033. It also gave a solubility (mole fraction) (in ethanol, 283.1 K) of 0.00323, a solubility (mole fraction) (in ethanol, 288.1 K) of 0.00417 and a solubility (mole fraction) (in ethanol, 293.1 K) of 0.00532. For the same compound, the solubility (mole fraction) (in ethanol, 298.1 K) was 0.00656, the solubility (mole fraction) (in ethanol, 303.1 K) was 0.00839 and the solubility (mole fraction) (in ethanol, 308.1 K) was 0.0108. It also gave a solubility (mole fraction) (in ethanol, 313.1 K) of 0.014, a solubility (mole fraction) (in ethanol, 318.1 K) of 0.0184 and a solubility (mole fraction) (in ethanol, 323.1 K) of 0.0242. The solubility (mole fraction) (in ethyl acetate, 283.1 K) was 0.0691, the solubility (mole fraction) (in ethyl acetate, 288.1 K) was 0.0795 and the solubility (mole fraction) (in ethyl acetate, 293.1 K) was 0.0907. The solubility (mole fraction) (in ethyl acetate, 298.1 K) was 0.103, the solubility (mole fraction) (in ethyl acetate, 303.1 K) was 0.118 and the solubility (mole fraction) (in ethyl acetate, 308.1 K) was 0.135. The solubility (mole fraction) (in ethyl acetate, 313.1 K) was 0.156, the solubility (mole fraction) (in ethyl acetate, 318.1 K) was 0.179 and the solubility (mole fraction) (in ethyl acetate, 323.1 K) was 0.204. The solubility (mole fraction) (in isobutanol, 283.1 K) was 0.00212, the solubility (mole fraction) (in isobutanol, 288.1 K) was 0.0029 and the solubility (mole fraction) (in isobutanol, 293.1 K) was 0.00384. The solubility (mole fraction) (in isobutanol, 298.1 K) was 0.00526, the solubility (mole fraction) (in isobutanol, 303.1 K) was 0.00708 and the solubility (mole fraction) (in isobutanol, 308.1 K) was 0.00958. For the same compound, the solubility (mole fraction) (in isobutanol, 313.1 K) was 0.0131, the solubility (mole fraction) (in isobutanol, 318.1 K) was 0.018 and the solubility (mole fraction) (in isobutanol, 323.1 K) was 0.0249. The solubility (mole fraction) (in isopentanol, 283.1 K) was 0.00241, the solubility (mole fraction) (in isopentanol, 288.1 K) was 0.00329 and the solubility (mole fraction) (in isopentanol, 293.1 K) was 0.00422. The solubility (mole fraction) (in isopentanol, 298.1 K) was 0.0056, the solubility (mole fraction) (in isopentanol, 303.1 K) was 0.00766 and the solubility (mole fraction) (in isopentanol, 308.1 K) was 0.0102. It also gave a solubility (mole fraction) (in isopentanol, 313.1 K) of 0.0137, a solubility (mole fraction) (in isopentanol, 318.1 K) of 0.0183 and a solubility (mole fraction) (in isopentanol, 323.1 K) of 0.025. The solubility (mole fraction) (in isopropanol, 283.1 K) was 0.00185, the solubility (mole fraction) (in isopropanol, 288.1 K) was 0.0025 and the solubility (mole fraction) (in isopropanol, 293.1 K) was 0.00334. For the same compound, the solubility (mole fraction) (in isopropanol, 298.1 K) was 0.00444, the solubility (mole fraction) (in isopropanol, 303.1 K) was 0.00605 and the solubility (mole fraction) (in isopropanol, 308.1 K) was 0.0081. It also gave a solubility (mole fraction) (in isopropanol, 313.1 K) of 0.011, a solubility (mole fraction) (in isopropanol, 318.1 K) of 0.0152 and a solubility (mole fraction) (in isopropanol, 323.1 K) of 0.0209. For the same compound, the solubility (mole fraction) (in methanol, 283.1 K) was 0.00461, the solubility (mole fraction) (in methanol, 288.1 K) was 0.0057 and the solubility (mole fraction) (in methanol, 293.1 K) was 0.0071. For the same compound, the solubility (mole fraction) (in methanol, 298.1 K) was 0.00877, the solubility (mole fraction) (in methanol, 303.1 K) was 0.0112 and the solubility (mole fraction) (in methanol, 308.1 K) was 0.0139. The solubility (mole fraction) (in methanol, 313.1 K) was 0.0173, the solubility (mole fraction) (in methanol, 318.1 K) was 0.0221 and the solubility (mole fraction) (in methanol, 323.1 K) was 0.032. It also gave a solubility (mole fraction) (in methyl acetate, 283.1 K) of 0.0839, a solubility (mole fraction) (in methyl acetate, 288.1 K) of 0.096 and a solubility (mole fraction) (in methyl acetate, 293.1 K) of 0.109. For the same compound, the solubility (mole fraction) (in methyl acetate, 298.1 K) was 0.123, the solubility (mole fraction) (in methyl acetate, 303.1 K) was 0.14 and the solubility (mole fraction) (in methyl acetate, 308.1 K) was 0.159. It also gave a solubility (mole fraction) (in methyl acetate, 313.1 K) of 0.178, a solubility (mole fraction) (in methyl acetate, 318.1 K) of 0.198 and a solubility (mole fraction) (in methyl acetate, 323.1 K) of 0.22. The solubility (mole fraction) (in n-butanol, 283.1 K) was 0.00257, the solubility (mole fraction) (in n-butanol, 288.1 K) was 0.00352 and the solubility (mole fraction) (in n-butanol, 293.1 K) was 0.00459. It also gave a solubility (mole fraction) (in n-butanol, 298.1 K) of 0.00595, a solubility (mole fraction) (in n-butanol, 303.1 K) of 0.00794 and a solubility (mole fraction) (in n-butanol, 308.1 K) of 0.0104. For the same compound, the solubility (mole fraction) (in n-butanol, 313.1 K) was 0.0139, the solubility (mole fraction) (in n-butanol, 318.1 K) was 0.0185 and the solubility (mole fraction) (in n-butanol, 323.1 K) was 0.0253. For the same compound, the solubility (mole fraction) (in n-butyl acetate, 283.1 K) was 0.0497, the solubility (mole fraction) (in n-butyl acetate, 288.1 K) was 0.0573 and the solubility (mole fraction) (in n-butyl acetate, 293.1 K) was 0.0665. For the same compound, the solubility (mole fraction) (in n-butyl acetate, 298.1 K) was 0.077, the solubility (mole fraction) (in n-butyl acetate, 303.1 K) was 0.0897 and the solubility (mole fraction) (in n-butyl acetate, 308.1 K) was 0.105. It also gave a solubility (mole fraction) (in n-butyl acetate, 313.1 K) of 0.122, a solubility (mole fraction) (in n-butyl acetate, 318.1 K) of 0.142 and a solubility (mole fraction) (in n-butyl acetate, 323.1 K) of 0.165. The solubility (mole fraction) (in n-pentanol, 283.1 K) was 0.00266, the solubility (mole fraction) (in n-pentanol, 288.1 K) was 0.00374 and the solubility (mole fraction) (in n-pentanol, 293.1 K) was 0.00498. The solubility (mole fraction) (in n-pentanol, 298.1 K) was 0.00667, the solubility (mole fraction) (in n-pentanol, 303.1 K) was 0.0092 and the solubility (mole fraction) (in n-pentanol, 308.1 K) was 0.0122. The solubility (mole fraction) (in n-pentanol, 313.1 K) was 0.0164, the solubility (mole fraction) (in n-pentanol, 318.1 K) was 0.0219 and the solubility (mole fraction) (in n-pentanol, 323.1 K) was 0.0288. It also gave a solubility (mole fraction) (in n-pentyl acetate, 283.1 K) of 0.0429, a solubility (mole fraction) (in n-pentyl acetate, 288.1 K) of 0.0501 and a solubility (mole fraction) (in n-pentyl acetate, 293.1 K) of 0.0592. For the same compound, the solubility (mole fraction) (in n-pentyl acetate, 298.1 K) was 0.0681, the solubility (mole fraction) (in n-pentyl acetate, 303.1 K) was 0.0791 and the solubility (mole fraction) (in n-pentyl acetate, 308.1 K) was 0.093. It also gave a solubility (mole fraction) (in n-pentyl acetate, 313.1 K) of 0.108, a solubility (mole fraction) (in n-pentyl acetate, 318.1 K) of 0.128 and a solubility (mole fraction) (in n-pentyl acetate, 323.1 K) of 0.15. It also gave a solubility (mole fraction) (in n-propanol, 283.1 K) of 0.00265, a solubility (mole fraction) (in n-propanol, 288.1 K) of 0.00345 and a solubility (mole fraction) (in n-propanol, 293.1 K) of 0.00473. The solubility (mole fraction) (in n-propanol, 298.1 K) was 0.00629, the solubility (mole fraction) (in n-propanol, 303.1 K) was 0.00799 and the solubility (mole fraction) (in n-propanol, 308.1 K) was 0.0106. For the same compound, the solubility (mole fraction) (in n-propanol, 313.1 K) was 0.014, the solubility (mole fraction) (in n-propanol, 318.1 K) was 0.0186 and the solubility (mole fraction) (in n-propanol, 323.1 K) was 0.0252. The solubility (mole fraction) (in n-propyl acetate, 283.1 K) was 0.0592, the solubility (mole fraction) (in n-propyl acetate, 288.1 K) was 0.0673 and the solubility (mole fraction) (in n-propyl acetate, 293.1 K) was 0.0771. For the same compound, the solubility (mole fraction) (in n-propyl acetate, 298.1 K) was 0.0895, the solubility (mole fraction) (in n-propyl acetate, 303.1 K) was 0.104 and the solubility (mole fraction) (in n-propyl acetate, 308.1 K) was 0.12. It also gave a solubility (mole fraction) (in n-propyl acetate, 313.1 K) of 0.138, a solubility (mole fraction) (in n-propyl acetate, 318.1 K) of 0.159 and a solubility (mole fraction) (in n-propyl acetate, 323.1 K) of 0.183.
